Patent publication US12410160B2 (Gilead Sciences, Inc., priority 2021, dated 2025)
pEC50, pIC50: −log10 of the molar value. Where two headings read alike, the source gives them in different places.

Key:
human KHK-C = human KHK-C (Homo sapiens (Human), UniProt P50053); assay: KHK Biochemical Assay (IC50), ADP-Glo, KHK-C; details: average of at least two separate assays
How it was run: (§1)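 His-tagged enzyme expressed in BL21 (DE3), Ni-NTA purified. Compounds, serially diluted 1:3 in DMSO, pre-incubated 30 min with enzyme in 50 mM Hepes pH 7.4, 140 mM KCl, 5 mM MgCl2, 0.01% Triton-X, then ATP and fructose added; 4 h at room temperature. ADP formation read by ADP-Glo luminescence.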

human KHK-A = human KHK-A (Homo sapiens (Human), UniProt P50053); assay: KHK Biochemical Assay (IC50), ADP-Glo, KHK-A; details: average of at least two separate assays
human KHK-A, sequence (P50053 other isoform, or with tags, fused parts or gaps): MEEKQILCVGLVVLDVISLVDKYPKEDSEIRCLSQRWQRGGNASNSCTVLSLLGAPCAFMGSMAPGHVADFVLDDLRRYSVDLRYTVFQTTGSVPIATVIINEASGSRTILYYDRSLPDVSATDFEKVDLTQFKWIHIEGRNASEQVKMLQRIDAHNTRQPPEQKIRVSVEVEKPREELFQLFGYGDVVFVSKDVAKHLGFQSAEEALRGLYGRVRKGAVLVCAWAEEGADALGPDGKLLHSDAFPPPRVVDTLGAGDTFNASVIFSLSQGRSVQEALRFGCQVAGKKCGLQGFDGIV
How it was run: as §1

[1] = biological target: KHK-C expressed in NRK-52E cells (Homo sapiens (Human), UniProt P50053); assay: KHK-C Cell-based Assay (EC50), NRK CTG, fructose-mediated ATP-depletion
KHK-C expressed in NRK-52E cells, sequence (P50053 whole entry): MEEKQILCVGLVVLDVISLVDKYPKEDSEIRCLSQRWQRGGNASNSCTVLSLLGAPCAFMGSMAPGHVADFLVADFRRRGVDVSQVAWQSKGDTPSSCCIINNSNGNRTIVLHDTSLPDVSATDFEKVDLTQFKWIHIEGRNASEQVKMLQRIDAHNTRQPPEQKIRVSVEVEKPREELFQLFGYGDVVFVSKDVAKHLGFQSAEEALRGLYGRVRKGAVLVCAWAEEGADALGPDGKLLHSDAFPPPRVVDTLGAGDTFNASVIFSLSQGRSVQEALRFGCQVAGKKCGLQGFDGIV
Description: Compounds were tested in a high-throughput 384-well assay format for their ability to attenuate fructose-mediated ATP-depletion in Normal Rat Kidney epithelial cells (NRK-52E) using the Cell-Titer Glo (CTG) assay, which measures cellular ATP levels based on luminescence signal by using the luciferase-luciferin system. Compounds were serially diluted (1:3) in DMSO.
The plates were incubated at 37° C., 5% CO2 for one day. Cells were then transduced on day 2 with 200 MOI of Adenovirus (VQAd KHKC C-(K)-DYK ViraQuest Inc.) using the same medium and method as day-1 to induce KHK-C expression in the cells. Cells were incubated at 37° C., 5% CO2 for one day. On day-3, the medium was changed to DMEM medium (Corning, Catalog #10-014-CM) with 0.5% FBS and Penicillin-Streptomycin after washing the cells twice with sterile PBS on the BioTEK EL406 washer and dispenser. Test compounds were then diluted 200-fold into the assay plates using the BioMek FX and were incubated for 1 hour at 37° C., 5% CO2. 25 mM (final concentration) of fructose was then dispensed into the plates using the BioTEK EL406 dispenser and the plates were incubated at 37° C., 5% CO2 for 48 hours before addition of CTG reagent and measurement of luminescence signal.

human KHK-C, sequence (P50053 whole entry): as above

SMILES	pIC50 (human KHK-C; ADP-Glo)	pIC50 (human KHK-A; ADP-Glo)	pEC50 [1]	pIC50 (human KHK-C)	pIC50 (human KHK-A)	pEC50 ([1]; read-out: NRK CTG EC50, NRK-52E cells, Cell-Titer Glo, 25 mM fructose)
C[C@H]1[C@H](C(N)=O)CN1c1nc2c(c(-c3ccc(C(N)=O)cc3)n1)CCC2 (relative stereo) [Example 266, (rac)-(2S*,3R*)-1-(4-(4-carbamoylphenyl)-6,7-dihydro-5H-cyclopenta[d]pyrimidin-2-yl)-2-methylazetidine-3-carboxamide]	< 5.30	< 5.30	< 5.30			
C[C@H]1CCN1c1nc2c(c(-c3cccc([C@H]4C[C@@H]4c4nn[nH]n4)c3)n1)CCC2 (relative stereo) [Example 270, 4-(3-((1S*,2S*)-2-(2H-tetrazol-5-yl)cyclopropyl)phenyl)-2-((S)-2-methylazetidin-1-yl)-6,7-dihydro-5H-cyclopenta[d]pyrimidine]	7.35	7.21	5.67			
C[C@H]1[C@H](O)CN1c1nc(-c2ccc3c(c2)CC[C@@]32CCC(=O)N2)c2c(n1)C(F)(F)CC2 (single isomer, unassigned) [Example 637]			6.79	7.66	7.45	
C[C@H]1[C@H](O)CN1c1nc(-c2ccc3c(c2)COC[C@@]32CCC(=O)N2)c2c(n1)C(F)(F)CC2 (single isomer, unassigned) [Example 640]			6.55	7.53	7.41	
C[C@H]1[C@H](O)CN1c1nc(-c2ccc3c(c2)COC[C@]32CCC(=O)N2)c2c(n1)C(F)(F)CC2 (single isomer, unassigned) [Example 641]				9.05	7.84	7.69
C[C@H]1CCN1c1nc2c(c(-c3ccc(C(O)C(F)(F)F)cc3)n1)CCC2 (stereo in doubt) [Example 265, 2,2,2-trifluoro-1-[4-[2-[(2S)-2-methylazetidin-1-yl]-6,7-dihydro-5H-cyclopenta[d]pyrimidin-4-yl]phenyl]ethanol]	5.79	5.68	6.15			
C[C@H]1CCN1c1nc2c(c(-c3ccc(C(N)C(F)(F)F)cc3)n1)CCC2 (stereo in doubt) [Example 269, 2,2,2-trifluoro-1-[4-[2-[(2S)-2-methylazetidin-1-yl]-6,7-dihydro-5H-cyclopenta[d]pyrimidin-4-yl]phenyl]ethanamine]	< 5.30	< 5.30	< 5.30			
C[C@H]1CCN1c1nc2c(c(-c3cccc([C@H]4C[C@@H]4C#N)c3)n1)CCC2 (stereo in doubt) [Example 454, trans-2-[3-[2-[(2S)-2-methylazetidin-1-yl]-6,7-dihydro-5H-cyclopenta[d]pyrimidin-4-yl]phenyl]cyclopropanecarbonitrile]			6.26	6.31	6.34	
Cc1ccc(-c2nc(N3CC[C@@H]3C)nc3c2CCC3)cc1C(N)=O [Example 27, (S)-2-methyl-5-(2-(2-methylazetidin-1-yl)-6,7-dihydro-5H-cyclopenta[d]pyrimidin-4-yl)benzamide]	7.22	7.23	6.64			
CNC(=O)c1cccc(-c2nc(N3CC[C@@H]3C)nc3c2CCC3)c1 [Example 28, (S)—N-methyl-3-(2-(2-methylazetidin-1-yl)-6,7-dihydro-5H-cyclopenta[d]pyrimidin-4-yl)benzamide]	7.30	7.26	6.86			
Cc1ncc(-c2nc(N3CC[C@@H]3C)nc3c2CCC3)s1 [Example 34, (S)-2-methyl-5-(2-(2-methylazetidin-1-yl)-6,7-dihydro-5H-cyclopenta[d]pyrimidin-4-yl)thiazole]	7.19	7.28	6.85			
C[C@H]1CCN1c1nc2c(c(-c3cscn3)n1)CCC2 [Example 36, (S)-4-(2-(2-methylazetidin-1-yl)-6,7-dihydro-5H-cyclopenta[d]pyrimidin-4-yl)thiazole]	6.83	6.83	6.36			
C[C@H]1[C@H](O)CN1c1nc(-c2cccc(S(N)(=O)=O)c2)c2c(cnn2C)n1 [Example 38]	6.08	6.09	4.91			
C[C@H]1CCN1c1nc2c(c(-c3ccc4[nH]ncc4c3)n1)CCC2 [Example 39, (S)-5-(2-(2-methylazetidin-1-yl)-6,7-dihydro-5H-cyclopenta[d]pyrimidin-4-yl)-1H-indazole]	6.95	7.06	6.68			
CC(=O)Nc1cccc(-c2nc(N3C[C@@H](O)[C@@H]3C)nc3c2CCC3)c1 [Example 41]	6.90	6.99	6.22			
C[C@H]1[C@H](O)CN1c1nc2c(c(-c3cccc(NS(C)(=O)=O)c3)n1)CCC2 [Example 43, N-(3-(2-((2S,3R)-3-hydroxy-2-methylazetidin-1-yl)-6,7-dihydro-5H-cyclopenta[d]pyrimidin-4-yl)phenyl)methanesulfonamide]	7.32	7.18	6.65			
C[C@H]1CCN1c1nc2c(c(-c3ccc4cn[nH]c4c3)n1)CCC2 [Example 44, (S)-6-(2-(2-methylazetidin-1-yl)-6,7-dihydro-5H-cyclopenta[d]pyrimidin-4-yl)-1H-indazole]	6.59	6.54	6.48			
C[C@H]1[C@H](O)CN1c1nc2c(c(-c3cccc(C4CC4C(=O)O)c3)n1)CCC2 (stereo partly drawn) [Example 47, 2-(3-(2-((2S,3R)-3-hydroxy-2-methylazetidin-1-yl)-6,7-dihydro-5H-cyclopenta[d]pyrimidin-4-yl)phenyl)cyclopropane-1-carboxylic acid]	7.82	7.53	5.62			
C[C@H]1CCN1c1nc(-c2cccc(C(N)=O)c2)c2c(n1)[C@@H]1CC[C@H]2C1 [Example 63, 3-((5S,8R)-2-((S)-2-methylazetidin-1-yl)-5,6,7,8-tetrahydro-5,8-methanoquinazolin-4-yl)benzamide]	7.02	6.95	6.86			
C[C@H]1CCN1c1nc2c(c(-c3cccc(C(=O)NCC(=O)O)c3)n1)CCC2 [Example 66, (S)-(3-(2-(2-methylazetidin-1-yl)-6,7-dihydro-5H-cyclopenta[d]pyrimidin-4-yl)benzoyl)glycine]	7.26	7.19	4.45			
C[C@H]1CCN1c1nc2c(c(-c3ccc4[nH]nc(CC(=O)O)c4c3)n1)CCC2 [Example 70, (S)-2-(5-(2-(2-methylazetidin-1-yl)-6,7-dihydro-5H-cyclopenta[d]pyrimidin-4-yl)-1H-indazol-3-yl)acetic acid]	7.29	7.53	< 5.30			

The next lines start with the values.

pIC50 (human KHK-C; ADP-Glo)	pIC50 (human KHK-A; ADP-Glo)	pEC50 [1]	pIC50 (human KHK-C)	pIC50 (human KHK-A)	pEC50 ([1]; read-out: NRK CTG EC50, NRK-52E cells, Cell-Titer Glo, 25 mM fructose)	SMILES
7.95	8.05	6.92				C[C@H]1CCN1c1nc2c(c(-c3cccc([C@@H]4C[C@H]4C(=O)O)c3)n1)CCC2 (single isomer, unassigned) [Example 90]
		8.24	9.22	9.30		C[C@H]1[C@H](O)CN1c1nc(-c2ccc(OC3CC3)c([S@@](C)(=N)=O)c2)c2c(n1)C(F)(F)CC2 (single isomer, unassigned) [Example 542]
		8.17	9.10	7.79		C[C@H]1[C@H](O)CN1c1nc(-c2ccc3c(c2)OC[C@]32NC(=O)OC2(C)C)c2c(n1)C(F)(F)CC2 (single isomer, unassigned) [Example 566]
		8.21	9.52	8.07		C[C@H]1[C@H](O)CN1c1nc(-c2ccc3c(c2)CC[C@]32CCC(=O)N2)c2c(n1)C(F)(F)CC2 (single isomer, unassigned) [Example 638]
		7.30	8.13	8.12		C[C@H]1CCN1c1nc(-c2cccc(N=[S@@](C)(N)=O)c2)c2c(n1)C(F)(F)CC2 (single isomer, unassigned) [Example 691]
		7.35	8.08	8.16		C[C@H]1CCN1c1nc(-c2cccc(N=[S@](C)(N)=O)c2)c2c(n1)C(F)(F)CC2 (single isomer, unassigned) [Example 692]
		6.97	7.69	7.50		C[C@H]1[C@H](O)CN1c1nc(-c2ccc3c(c2)OC[C@]32CN(C)C(=O)N2)c2c(n1)C(F)(F)CC2 (single isomer, unassigned) [Example 701]
		8.41	9.70	7.93		C[C@H]1[C@H](O)CN1c1nc(-c2ccc3c(c2)OC[C@@]32CN(C)C(=O)N2)c2c(n1)C(F)(F)CC2 (single isomer, unassigned) [Example 702]
		7.29	7.66	7.35		C[C@H]1CCN1c1nc2c(c(-c3cccc([C@H]4C[C@@H]4C(N)=O)c3)n1)CCC2 (stereo in doubt) [Example 456, trans-2-[3-[2-[(2S)-2-methylazetidin-1-yl]-6,7-dihydro-5H-cyclopenta[d]pyrimidin-4-yl]phenyl]cyclopropanecarboxamide]
7.48	7.26	6.92				C[C@H]1CCN1c1nc2c(c(-c3cccc(CCC(N)=O)c3)n1)CCC2 [Example 29]
8.28	8.15	7.11				C[C@H]1[C@H](F)CN1c1nc2c(c(-c3cccc(C4CC4C(=O)O)c3)n1)CCC2 (stereo partly drawn) [Example 48]
7.75	7.89	7.18				C[C@H]1[C@H](O)CN1c1nc2c(c(-c3ccc(C(N)=O)s3)n1)CCC2 [Example 57, 5-(2-((2S,3R)-3-hydroxy-2-methylazetidin-1-yl)-6,7-dihydro-5H-cyclopenta[d]pyrimidin-4-yl)thiophene-2-carboxamide]
8.10	8.24	8.02				C[C@H]1[C@H](F)CN1c1nc2c(c(-c3ccc(C(N)=O)s3)n1)CCC2 [Example 58]
